According to US20230271949A1, “GLP-1R MODULATING COMPOUNDS” (ASCLETIS BIOSCIENCE CO., LTD., priority 2022, published 2023):

How the values were obtained:
[1] = molecular target: T1, GLP-1R (Homo sapiens, UniProt P43220); assay: GLP-1R agonist cAMP stimulation assay (HTRF cAMP); format: cell-based; conditions: HEK293 cell line expressing GLP-1 target; HTRF cAMP agonist mode, 30 min at RT
How it was run: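 Read-out was HTRF (665/615 ratio), interpolated onto a cAMP standard curve and normalised to DMSO (0%) and maximal GLP-1(7-37) reference (100%) wells. Assay: GLP-1R cells at 1.0×E5/mL incubated with compound dilution series (3-fold, 10 points) for 30 min at room temperature before 60 min detection.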

[2] = molecular target: T1, GLP-1R; assay: Tag-lite binding assay (competition with GLP-1 receptors red agonist); conditions: for IC50: HEK293 GLP-1 cells labeled with SNAP-Lumi4-Tb, red agonist 4.917 nM, 23° C., 2 h; for Ki: calculated from sample IC50 and red agonist Kd
Method: B. Tag-Lite Binding Assay
The cell line was constructed by WuXi.
10) Dispense cells into cell plate (1.8 M cells/well in 2 ml medium of 6-well plate, total 4 wells).
Second Day: Tag-Lite Binding Assay
3) The cell culture medium is removed from the 6-well plate and then 1 mL of Tag-lite SNAP-Lumi4-Tb diluted in Tag-lite labeling medium are added gently on the cells.
7) The testing compounds and reference compound are serially diluted with 3-fold, 10 points using Echo, then transfer 100 nL compounds to the assay plate.
8) Add the labeled cells to each well according to the plate map, 10000 cells/10 uL/well. Centrifuge the plate at 1000 rpm for 1 min.
9) Incubate the plate at 23° C., 30 min.
10) Add 50 nL of red agonist (final conc.: 4.917 nM) to destination plate using Echo.
11) Incubate the plate at 23° C. for 2 h.
12) Read the plate on an HTRF® compatible reader (at 665 nm and 620 nm).
% Inhibition=100%−(Ratio−LC)/(HC−LC)*100%
HC: The average ratio of adding DMSO wells
LC: The average ratio of adding the top concentration of reference compounds wells
b) The “log (inhibitor) vs. response—Variable slope” model in GraphPad Prism 5.0 was used to fit the dose-response curve of each sample. The sample concentration (x) and its corresponding % Inhibition data (y) were substituted into the model. The sample concentration (abscissa) was x=log(x) transformed. The transformed xy was used as the sample curve to obtain the IC50.
c) Calculate the sample Ki according to the sample IC50 and red agonist Kd. S in the formula is the actual used concentration of red agonist.

T1 sequence (P43220 24-463): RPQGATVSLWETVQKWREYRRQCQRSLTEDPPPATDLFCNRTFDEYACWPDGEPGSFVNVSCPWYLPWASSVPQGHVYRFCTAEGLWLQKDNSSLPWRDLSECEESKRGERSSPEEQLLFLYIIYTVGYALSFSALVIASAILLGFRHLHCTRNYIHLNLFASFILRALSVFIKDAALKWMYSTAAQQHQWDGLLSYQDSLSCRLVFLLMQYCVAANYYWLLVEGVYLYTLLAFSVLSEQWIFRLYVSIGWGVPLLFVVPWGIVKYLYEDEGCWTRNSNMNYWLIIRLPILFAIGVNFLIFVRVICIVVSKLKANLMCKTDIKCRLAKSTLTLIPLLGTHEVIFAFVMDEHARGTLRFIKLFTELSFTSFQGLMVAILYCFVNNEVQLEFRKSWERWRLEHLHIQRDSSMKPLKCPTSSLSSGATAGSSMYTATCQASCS

Structure (SMILES)	EC50 [1]	IC50 [2]	Ki [2]
Cc1n[nH]c2ccc(C(=O)Nc3ccc4c(c3)nc(CN3CCC(c5cccc6c5OC(C)(c5ccc(Cl)cc5F)O6)CC3)n4CC3CCO3)cc12 (stereo not drawn) [Compound 342]	0.91 nM	140 nM	72.2 nM
O=C(Nc1ccc2[nH]c(=O)[nH]c2c1)c1ccc2c(c1)nc(CN1CC=C(c3cccc(OCc4ccc(Cl)cc4F)n3)CC1)n2C[C@@H]1CCO1 [Compound 147]	0.68 nM	1750 nM	841 nM
Cc1n[nH]c2ccc(NC(=O)c3ccc4c(c3)nc(CN3CCC(c5cccc(OCc6ccc(Cl)cc6F)n5)CC3)n4C[C@@H]3CCO3)cc12 [Compound 88]	4.45 nM	1840 nM	920 nM
Cc1n[nH]c2c(F)cc(NC(=O)c3ccc4c(c3)nc(CN3CCC(c5cccc6c5OC(C)(c5ccc(C#N)cc5F)O6)CC3)n4CC3CCO3)cc12 (stereo not drawn) [Compound 334]	0.61 nM	1210 nM	692 nM
Cc1n[nH]c2c(C)cc(NC(=O)c3ccc4c(c3)nc(CN3CCC(c5cccc6c5OC(C)(c5ccc(C#N)cc5F)O6)CC3)n4CC3CCO3)cc12 (stereo not drawn) [Compound 335]	0.97 nM	1110 nM	615 nM
Cc1n[nH]c2c(F)cc(C(=O)Nc3ccc4c(c3)nc(C3CC35CCN(c3cccc(OCc6ccc(Cl)cc6F)n3)CC5)n4CC3CCO3)cc12 (stereo not drawn) [Compound 244]	0.33 nM	189 nM	110 nM
Cc1n[nH]c2ccc(C(=O)Nc3ccc4c(c3)nc(CN3CC=C(c5cccc(OCc6ccc(Cl)cn6)n5)CC3)n4C[C@@H]3CCO3)cc12 [Compound 391]	0.91 nM	116 nM	70.3 nM
CCn1cncc1Cn1c(Cc2cc(F)c(-c3cccc(OCc4ccc(Cl)cc4F)n3)cc2F)nc2cc(NC(=O)c3cc(F)c4[nH]nc(C)c4c3)ccc21 [Compound 414]	0.57 nM	31.7 nM	15.6 nM
Cc1n[nH]c2c(C)cc(C(=O)Nc3ccc4c(c3)nc(CN3CC=C(c5cccc6c5O[C@](C)(c5ccc(Cl)cc5F)O6)CC3)n4CC3CCO3)cc12 (stereo partly drawn) [Compound 385]	0.61 nM	158 nM	82.7 nM
Cc1n[nH]c2c(C)cc(C(=O)Nc3ccc4c(c3)nc(C3CC35CCN(c3cccc(OCc6ccc(Cl)cc6F)n3)CC5)n4CC3CCO3)cc12 (stereo not drawn) [Compound 245]	0.51 nM	146 nM	82.3 nM
CCn1cncc1Cn1c(CN2CC=C(c3cccc(OCc4ccc(Cl)cc4F)n3)CC2)nc2cc(NC(=O)c3cc(F)c4[nH]nc(C)c4c3)ccc21 [Compound 408]	0.21 nM	106 nM	68.4 nM
O=C(Nc1ccc2c(c1)nc(CN1CC=C(c3cccc(OCc4ccc(Cl)cc4F)n3)CC1)n2C[C@@H]1CCO1)c1ccc2[nH]c(=O)[nH]c2c1 [Compound 142]	0.21 nM	2010 nM	1000 nM
Cc1n[nH]c2ccc(NC(=O)c3ccc4c(c3)nc(CN3CC=C(c5cccc6c5O[C@@](C)(c5ccc(Cl)cc5F)O6)CC3)n4C[C@@H]3CCO3)cc12 [Compound 5, 2-((4-((S)-2-(4-chloro-2-fluorophenyl)-2-methylbenzo[d][1,3]dioxol-4-yl)-3,6-dihydropyridin-1(2H)-yl)methyl)-N-(3-methyl-1H-indazol-5-yl)-1-(((S)-oxetan-2-yl)methyl)-1H-benzo[d]imidazole-5-carboxamide]	0.12 nM	1700 nM	911 nM
Cc1n[nH]c2c(F)cc(NC(=O)c3ccc4c(c3)nc(CN3CC=C(c5cccc(OCc6ccc(Cl)cc6F)n5)CC3)n4C[C@@H]3CCO3)cc12 [Compound 153]	0.59 nM	1450 nM	873 nM
CCn1cncc1Cn1c(Cc2c(F)cc(-c3cccc4c3OC(C)(c3ccc(Cl)cn3)O4)cc2F)nc2cc(NC(=O)c3cc(F)c4[nH]nc(C)c4c3)ccc21 (stereo not drawn) [Compound 409]	0.42 nM	486 nM	237 nM
Cc1n[nH]c2c(F)cc(C(=O)Nc3ccc4c(c3)nc(Cc3cc(F)c(-c5cccc(OCc6ccc(Cl)cc6F)n5)cc3F)n4C[C@@H]3CCO3)cc12 [Compound 413]	0.49 nM	28 nM	14.1 nM

Structure (SMILES)	EC50 [1]	IC50 [2]	Ki [2]
Cc1n[nH]c2c(C)cc(NC(=O)c3ccc4c(c3)nc(CN3CC=C(c5cccc(OCc6ccc(Cl)cc6F)n5)CC3)n4C[C@@H]3CCO3)cc12 [Compound 151]	0.6 nM	1050 nM	519 nM
O=C(Nc1ccc2c(c1)nc(CN1CC=C(c3cccc(OCc4ccc(Cl)cn4)n3)CC1)n2C[C@@H]1CCO1)c1ccc2[nH]c(=O)[nH]c2c1 [Compound 207]	0.43 nM	149 nM	82.4 nM
Cc1n[nH]c2c(F)cc(C(=O)Nc3ccc4c(c3)nc(Cc3c(F)cc(-c5cccc6c5O[C@@](C)(c5ccc(Cl)cn5)O6)cc3F)n4CC3CCO3)cc12 (stereo partly drawn) [Compound 386]	0.15 nM	120 nM	69.9 nM
O=C(Nc1ccc2[nH]c(=O)[nH]c2c1)c1ccc2c(c1)nc(CN1CCC(c3cccc(OCc4ccc(Cl)cc4F)n3)CC1)n2C[C@@H]1CCO1 [Compound 90]	1.59 nM	1900 nM	950 nM
Cc1n[nH]c2c(F)cc(C(=O)Nc3ccc4c(c3)nc(Cc3cc(F)c(-c5cccc(OCc6ccc(Cl)cc6F)n5)cc3CO)n4C[C@@H]3CCO3)cc12 [Compound 416]	0.37 nM	54.3 nM	29.3 nM
Cc1cc(NC(=O)c2ccc3c(c2)nc(CN2CC=C(c4cccc(OCc5ccc(C#N)cc5F)n4)CC2)n3C[C@@H]2CCO2)cc2c1NC(=O)C21CC1 [Compound 178]	0.19 nM	875 nM	430 nM
O=C(NCC(=O)N1C[C@H](O)C[C@H]1C(=O)O)c1ccc2c(c1)nc(CN1CCC(c3cccc(OCc4ccc(Cl)cc4F)n3)CC1)n2C[C@@H]1CCO1 [Compound 2, (2S,4R)-1-((2-((4-(6-((4-chloro-2-fluorobenzyl)oxy)pyridin-2-yl)piperidin-1-yl)methyl)-1-(((S)-oxetan-2-yl)methyl)-1H-benzo[d]imidazole-5-carbonyl)glycyl)-4-hydroxypyrrolidine-2-carboxylic acid]	0.32 nM	345 nM	165 nM
O=C(Nc1ccc2[nH]nnc2c1)c1ccc2c(c1)nc(CN1CC=C(c3cccc(OCc4ccc(Cl)cc4F)n3)CC1)n2C[C@@H]1CCO1 [Compound 166]	0.76 nM	2650 nM	1320 nM
Cc1n[nH]c2c(C)cc(NC(=O)c3ccc4c(c3)nc(CN3CCC(c5cccc(OCc6ccc(Cl)cc6F)n5)CC3)n4C[C@@H]3CCO3)cc12 [Compound 100]	0.98 nM	1260 nM	893 nM
O=C(Nc1ccc2c(c1)C1(CC1)C(=O)N2)c1ccc2c(c1)nc(CN1CCC(c3cccc(OCc4ccc(Cl)cn4)n3)CC1)n2C[C@@H]1CCO1 [Compound 101]	0.75 nM	1280 nM	641 nM
CCn1cncc1Cn1c(Cc2c(F)cc(-c3cccc(OCc4ccc(Cl)cc4F)n3)cc2F)nc2cc(NC(=O)c3cc(F)c4[nH]nc(C)c4c3)ccc21 [Compound 415]	0.71 nM	233 nM	117 nM
Cc1n[nH]c2c(F)cc(C(=O)Nc3ccc4c(c3)nc(Cc3cc(F)c(-c5cccc(OCc6ccc(Cl)cc6F)n5)cc3F)n4C3COC[C@H]3O)cc12 (stereo partly drawn) [Compound 417]	0.65 nM	137 nM	69.2 nM
Cc1n[nH]c2c(F)cc(NC(=O)c3ccc4c(c3)nc(CN3CCC(c5cccc(OCc6ccc(Cl)cc6F)n5)CC3)n4C[C@@H]3CCO3)cc12 [Compound 103]	0.83 nM	1550 nM	885 nM
Cc1cc(NC(=O)c2ccc3c(c2)nc(CN2CCC(c4cccc(OCc5ccc(Cl)cc5F)n4)CC2)n3C[C@@H]2CCO2)cc2cn[nH]c12 [Compound 80]	2.05 nM	2320 nM	1160 nM
Cc1n[nH]c2c(C)cc(C(=O)Nc3ccc4c(c3)nc(CN3CCC(c5cccc6c5OC(C)(c5ccc(Cl)cc5F)O6)CC3)n4CC3CCO3)cc12 (stereo not drawn) [Compound 341]	0.31 nM	158 nM	95.5 nM
